# Measured values published in patent US9505728B2, “Triazolone compounds and uses thereof” (INCEPTION 2, INC., priority 2012, dated 2016).
# Biological target: T1, Human PPARα (Homo sapiens, UniProt Q07869)
# T1 construct: host or cells: proprietary non-human mammalian cells
# T1 sequence (Q07869 1-468): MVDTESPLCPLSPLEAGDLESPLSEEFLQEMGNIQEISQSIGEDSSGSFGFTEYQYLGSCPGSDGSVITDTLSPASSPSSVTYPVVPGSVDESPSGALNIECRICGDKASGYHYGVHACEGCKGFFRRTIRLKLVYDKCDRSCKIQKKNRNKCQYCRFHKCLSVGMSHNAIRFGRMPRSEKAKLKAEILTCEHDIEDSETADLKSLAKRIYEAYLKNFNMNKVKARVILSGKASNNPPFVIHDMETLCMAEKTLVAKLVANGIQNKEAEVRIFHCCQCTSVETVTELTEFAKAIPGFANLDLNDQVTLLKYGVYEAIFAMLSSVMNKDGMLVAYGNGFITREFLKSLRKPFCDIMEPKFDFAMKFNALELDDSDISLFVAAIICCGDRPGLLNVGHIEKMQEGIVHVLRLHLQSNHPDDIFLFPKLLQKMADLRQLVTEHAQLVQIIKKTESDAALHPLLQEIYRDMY
# Test: Human PPARα Reporter Assay (luciferase)
# Type: cell-based
# Conditions: human PPARα reporter cells, overnight incubation, antagonism; read-out: Luciferase IC50
# Summary of the method: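 Non-human mammalian cells constitutively expressing human PPARα with a PPARα-responsive luciferase reporter were dosed with compounds right after plating. After overnight incubation, media removed and detection reagent added; luminescence taken as proportional to PPARα activation, agonist or antagonist mode.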
row,Compound,IC50 [nM]
1,"COc1ccc(-c2ccc(CCCc3nn(Cc4ccc(C(C)(C)C)cc4)c(=O)n3CC(F)(F)F)cc2)cc1CC(=O)O [Example 55, 2-(4′-(3-(1-(4-(tert-Butyl)benzyl)-5-oxo-4-(2,2,2-trifluoroethyl)-4,5-dihydro-1H-1,2,4-triazol-3-yl)propyl)-4-methoxy-[1,1′-biphenyl]-3-yl)acetic acid]",250
2,"CCn1c(CCCc2ccc(-c3cccc(C4(C(=O)O)CC4)c3)cc2)nn(Cc2ccc(C(C)(C)C)cc2)c1=O [Example 13, 1-(4′-(3-(1-(4-(tert-Butyl)benzyl)-4-ethyl-5-oxo-4,5-dihydro-1H-1,2,4-triazol-3-yl)propyl)-[1,1′-biphenyl]-3-yl)cyclopropanecarboxylic acid]",268
3,"CCn1c(CCCc2ccc(-c3ccc(OC)c(NS(=O)(=O)C4CC4)n3)cc2)nn(Cc2ccc(C(C)(C)C)cc2)c1=O [Example 190, 1-{[4-(tert-Butyl)phenyl]methyl}-4-ethyl-3-[3-(4-{6-[(cyclopropylsulfonyl)amino]-5-methoxy(2-pyridyl)}phenyl)propyl]-1,2,4-triazolin-5-one]",12
4,"CCn1c(CC2CC2c2ccc(-c3cccc(CC(=O)O)c3)cc2)nn(Cc2ccc(C(C)(C)C)cc2)c1=O (centres unmarked) [Example 30, 2-(4′-(2-((1-(4-(tert-butyl)benzyl)-4-ethyl-5-oxo-4,5-dihydro-1H-1,2,4-triazol-3-yl)methyl)cyclopropyl)-[1,1′-biphenyl]-3-yl)acetic acid]",1280
5,"CCn1c(CCCc2ccc(-c3ccc(OC)c(NS(=O)(=O)CC)n3)cc2)nn(Cc2ccc(C(C)(C)C)cc2)c1=O [Example 189, 1-{[4-(tert-Butyl)phenyl]methyl}-4-ethyl-3-[3-(4-{6-[(ethylsulfonyl)amino]-5-methoxy(2-pyridyl)}phenyl)propyl]-1,2,4-triazolin-5-one]",36
6,"CCOc1ccc(-c2ccc(CCCc3nn(Cc4ccc(C(C)(C)C)cc4)c(=O)n3CC)cc2)cc1C(=O)O [Example 66, 4′-(3-(1-(4-(tert-Butyl)benzyl)-4-ethyl-5-oxo-4,5-dihydro-1H-1,2,4-triazol-3-yl)propyl)-4-ethoxy-[1,1′-biphenyl]-3-carboxylic acid]",3
7,"CCn1c(CCCc2ccc(-c3ccc(OC)c(CCNS(=O)(=O)c4ccccc4)c3)cc2)nn(Cc2ccc(C(C)(C)C)cc2)c1=O [Example 182, 1-{[4-(tert-Butyl)phenyl]methyl}-4-ethyl-3-{3-[4-(4-methoxy-3-{2-[(phenylsulfonyl)amino]ethyl}phenyl)phenyl]propyl}-1,2,4-triazolin-5-one]",414
8,"CCCOc1ccc(-c2ccc(CCCc3nn(Cc4ccc(C(C)(C)C)cc4)c(=O)n3CC)cc2)cc1CC(=O)O [Example 94, 2-(4′-(3-(1-(4-(tert-Butyl)benzyl)-4-ethyl-5-oxo-4,5-dihydro-1H-1,2,4-triazol-3-yl)propyl)-4-propoxy-[1,1′-biphenyl]-3-yl)acetic acid]",16
9,"CCn1c(CCCc2ccc(-c3ccc(OC)c(CN)c3)cc2)nn(Cc2ccc(C(C)(C)C)cc2)c1=O [Example 184, 3-(3-{4-[3-(Aminomethyl)-4-methoxyphenyl]phenyl}propyl)-1-{[4-(tert-butyl)phenyl]methyl}-4-ethyl-1,2,4-triazolin-5-one]",534
10,"CCn1c(CCCc2ccc(-c3cccc(CC(=O)O)c3)cc2)nn(Cc2ccc(C(C)(C)C)c(Br)c2)c1=O [Example 67, 2-(4′-(3-(1-(3-Bromo-4-(tert-butyl)benzyl)-4-ethyl-5-oxo-4,5-dihydro-1H-1,2,4-triazol-3-yl)propyl)-[1,1′-biphenyl]-3-yl)acetic acid]",88
11,"CCn1c(CCCc2ccc(-c3ccc(OC)c(CC(=O)O)c3)c(OC)c2)nn(Cc2ccc(C(C)(C)C)cc2)c1=O [Example 159, 2-(4′-(3-(1-(4-(tert-Butyl)benzyl)-4-ethyl-5-oxo-4,5-dihydro-1H-1,2,4-triazol-3-yl)propyl)-2′,4-dimethoxy-[1,1′-biphenyl]-3-yl)acetic acid]",410
12,"CCn1c(CCCc2ccc(-c3ncc(NS(=O)(=O)c4ccccc4)cn3)cc2)nn(Cc2ccc(C(C)(C)C)cc2)c1=O [Example 108, N-(2-(4-(3-(1-(4-(tert-Butyl)benzyl)-4-ethyl-5-oxo-4,5-dihydro-1H-1,2,4-triazol-3-yl)propyl)phenyl)pyrimidin-5-yl)benzenesulfonamide]",165
13,"CCn1c(CCCc2ccc(-c3ccnc(NS(=O)(=O)c4ccccc4)n3)cc2)nn(Cc2ccc(C(C)(C)C)cc2)c1=O [Example 138, N-(4-(4-(3-(1-(4-(tert-Butyl)benzyl)-4-ethyl-5-oxo-4,5-dihydro-1H-1,2,4-triazol-3-yl)propyl)phenyl)pyrimidin-2-yl)benzenesulfonamide]",33
14,"CCn1c(CCCc2ccc(-c3cccc(NC(=O)c4ccccc4)n3)cc2)nn(Cc2ccc(C(C)(C)C)cc2)c1=O [Example 97, N-(6-{4-[3-(1-{[4-(tert-Butyl)phenyl]methyl}-4-ethyl-5-oxo(1,2,4-triazolin-3-yl))propyl]phenyl}(2-pyridyl))benzamide]",745
15,"CCn1c(CCCc2ccc(-c3ccc(NS(C)(=O)=O)cn3)cc2)nn(Cc2ccc(C(C)(C)C)cc2)c1=O [Example 12, N-(6-(4-(3-(1-(4-(tert-Butyl)benzyl)-4-ethyl-5-oxo-4,5-dihydro-1H-1,2,4-triazol-3-yl)propyl)phenyl)pyridin-3-yl)methanesulfonamide]",63
16,"CCn1c(CCCc2ccc(-c3csc(C4(F)COC4)n3)cc2)nn(Cc2ccc(C(C)(C)C)cc2)c1=O [Example 201, 1-(4-(tert-Butyl)benzyl)-4-ethyl-3-(3-(4-(2-(3-fluorooxetan-3-yl)thiazol-4-yl)phenyl)propyl)-1H-1,2,4-triazol-5(4H)-one]",533
17,"CCn1c(CCCc2ccc(-c3cnc(C4(O)COC4)nc3)cc2)nn(Cc2ccc(C(C)(C)C)cc2)c1=O [Example 173, 1-(4-(tert-Butyl)benzyl)-4-ethyl-3-(3-(4-(2-(3-hydroxyoxetan-3-yl)pyrimidin-5-yl)phenyl)propyl)-1H-1,2,4-triazol-5(4H)-one]",126
18,"CCn1c(CCCc2ccc(-c3ccc(C(=O)C(=O)NC4CC4)cc3)cc2)nn(Cc2ccc(C(C)(C)C)cc2)c1=O [Example 52, 2-(4′-(3-(1-(4-(tert-Butyl)benzyl)-4-ethyl-5-oxo-4,5-dihydro-1H-1,2,4-triazol-3-yl)propyl)-[1,1′-biphenyl]-4-yl)-N-cyclopropyl-2-oxoacetamide]",440
19,"CCn1c(CCCc2ccc(-c3cc(C(=O)O)cc(C(F)(F)F)c3)cc2)nn(Cc2ccc(C(C)(C)C)cc2)c1=O [Example 41, 4′-(3-(1-(4-(tert-Butyl)benzyl)-4-ethyl-5-oxo-4,5-dihydro-1H-1,2,4-triazol-3-yl)propyl)-5-(trifluoromethyl)-[1,1′-biphenyl]-3-carboxylic acid]",510
20,"CCn1c(CCCc2ccc(-c3cccc(CC(=O)O)c3)cc2)nn(Cc2ccc(Br)cc2)c1=O [Example 37, 2-(4′-(3-(1-(4-Bromobenzyl)-4-ethyl-5-oxo-4,5-dihydro-1H-1,2,4-triazol-3-yl)propyl)-[1,1′-biphenyl]-3-yl)acetic acid]",1960
21,"CCn1c(CCCc2ccc(-c3ccc(OC(C)C)c(CC(=O)O)c3)cc2)nn(Cc2ccc(C(C)(C)C)cc2)c1=O [Example 200, 2-(4′-(3-(1-(4-(tert-Butyl)benzyl)-4-ethyl-5-oxo-4,5-dihydro-1H-1,2,4-triazol-3-yl)propyl)-4-isopropoxy-[1,1′-biphenyl]-3-yl)acetic acid]",13
22,"CCn1c(CCCc2ccc(-c3cccc(NS(=O)(=O)c4ccccc4)n3)cc2)nn(Cc2ccc(C(C)(C)C)cc2)c1=O [Example 4, N-(6-(4-(3-(1-(4-(tert-Butyl)benzyl)-4-ethyl-5-oxo-4,5-dihydro-1H-1,2,4-triazol-3-yl)propyl)phenyl)pyridin-2-yl)benzenesulfonamide]",40
23,"CCn1c(CCCc2ccc(-c3ccc(OC)c([C@@H](C)C(=O)O)c3)cc2)nn(Cc2ccc(C(C)(C)C)cc2)c1=O [Example 141, (R)-2-(4′-(3-(1-(4-(tert-Butyl)benzyl)-4-ethyl-5-oxo-4,5-dihydro-1H-1,2,4-triazol-3-yl)propyl)-4-methoxy-[1,1′-biphenyl]-3-yl)propanoic acid]",29
24,"CCn1c(COCc2ccc(-c3cccc(CC(=O)O)c3)cc2)nn(Cc2ccc(C(C)(C)C)cc2)c1=O [Example 27, 2-(4′(((1-(4-(tert-Butyl)benzyl)-4-ethyl-5-oxo-4,5-dihydro-1H-1,2,4-triazol-3-yl)methoxy)methyl)-[1,1′-biphenyl]-3-yl)acetic acid]",2170
25,"CCn1c(CCCc2ccc(-c3ccc(NS(=O)(=O)c4ccc(Oc5ccc(C(F)(F)F)cn5)cc4)cn3)cc2)nn(Cc2ccc(C(C)(C)C)cc2)c1=O [Example 77, 1-{[4-(tert-Butyl)phenyl]methyl}-4-ethyl-3-[3-(4-{5-[({4-[5-(trifluoromethyl)(2-pyridyloxy)]phenyl}sulfonyl)amino](2-pyridyl)}phenyl)propyl]-1,2,4-triazolin-5-one]",703
26,"CCn1c(CCCc2ccc(-c3cccc(CN)c3)cc2)nn(Cc2ccc(C(C)(C)C)cc2)c1=O [Example 172, 3-(3-{4-[3-(Aminomethyl)phenyl]phenyl}propyl)-1-{[4-(tert-butyl)phenyl]methyl}-4-ethyl-1,2,4-triazolin-5-one]",647
